Experiments:
PCB490-5 = system: PCB490-5 (human epithelioid sarcoma primary culture)
Experimental: (§1)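 Roche open-access kinase inhibitor screen (223 compounds) on human epithelioid sarcoma primary cultures from three spatially distinct regions of tumor PCB490. 384-well plates, 72 h, CellTiter-Glo viability; IC50 by Hill curve fit. 100000 nM = no IC50 reached. Compound ids carry a plate-well prefix, which is stripped.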

PCB490-3 = system: PCB490-3 (human epithelioid sarcoma primary culture)
Experimental: as §1

PCB490-4 = system: PCB490-4 (human epithelioid sarcoma primary culture)
Experimental: as §1

Compound	IC50 cell viability (PCB490-5) [µM]	IC50 cell viability (PCB490-3) [µM]	IC50 cell viability (PCB490-4) [µM]
Nc1c(C(=O)c2cccc(-c3cccnc3)c2)cnn1-c1ccc(F)cc1	> 100	> 100	> 100
Cc1ccc2c(c1)c(C1=C(c3cn(C)c4ccccc34)C(=O)NC1=O)cn2C	> 100	> 100	> 100
O=C1NC(O)C(c2c[nH]c3ccccc23)=C1c1c[nH]c2ccccc12 (stereo not given)	> 100	> 100	> 100
Cn1cc(C2=C(c3cn(CCCCN)c4ccccc34)C(=O)NC2=O)c2ccccc21	> 100	> 100	> 100
COc1ccc2c(c1)C(c1ccccc1Cl)=Nc1c(n[nH]c1C)N2	> 100	> 100	> 100
O=C1NC(=NCCc2cccc(Cl)c2)S/C1=C\c1ccc2ncccc2c1	> 100	> 100	> 100
N#Cc1ccc(C(=O)c2cnn(-c3ccc(F)cc3)c2N)cc1	> 100	> 100	> 100
Cn1cc(C2=C(Oc3ccccc3)C(=O)NC2=O)c2ccccc21	> 100	> 100	> 100
CCc1c(C)nc2sc3c(N)ncnc3c2c1C	> 100	> 100	> 100
COc1ccc(N2Cc3cnc(Nc4ccccc4)nc3N([C@@H]3CC[C@@H](O)C3)C2=O)cc1	2.16	2.59	1.79
Cn1cc(C2=C(c3c4n(c5ccccc35)CCN(C(N)=S)C4)C(=O)NC2=O)c2ccccc21	> 100	> 100	> 100
Cn1cc(C2=C(c3ccc4ccccc4c3)C(=O)NC2=O)c2ccccc21	> 100	> 100	> 100
COc1cc[nH]c1/C=C1\C(=O)Nc2ccc([N+](=O)[O-])c(N3CC[C@@H](O)C3)c21	4.71	4.87	7.83
O=C1NC(=N[C@@H]2C[C@H]2c2ccccc2)S/C1=C\c1ccc2ncccc2c1	> 100	> 100	> 100
Nc1c(C(=O)c2ccc(C#CCN3CCOCC3)cc2)cnn1-c1ccc(F)cc1	> 100	> 100	> 100
Cn1c(=O)c(Oc2ccc(F)cc2F)cc2cnc(N[C@H]3CCOC3)nc21	> 100	> 100	> 100
O=C1NC(=NCc2cccs2)O/C1=C\c1ccc2ncccc2c1	> 100	> 100	> 100
CC(=O)N[C@@H](Cc1ccc(OP(=O)(O)O)cc1)C(=O)N[C@H]1CCC(=O)N2CCC[C@@H](C(=O)NC3CCc4ccccc43)N2C1=O (stereo not given in full)	> 100	> 100	> 100
O=C1OC(=O)C(c2c[nH]c3ccccc23)=C1c1c[nH]c2ccccc12	> 100	> 100	> 100
C[C@H](O)CNc1cc(-c2[nH]c3cccnc3c2-c2ccc(F)cc2)ccn1	> 100	> 100	> 100

Compound	IC50 cell viability (PCB490-5) [µM]	IC50 cell viability (PCB490-3) [µM]	IC50 cell viability (PCB490-4) [µM]
Cn1cc(C2=C(c3cccc(OC[C@H](O)CO)c3)C(=O)NC2=O)c2ccccc21	> 100	> 100	> 100
Cn1c(=O)c(Oc2ccccc2F)cc2cnc(NC3CCOCC3)nc21	> 100	> 100	> 100
Nc1[nH]nc2nc(-c3cccs3)cc(C(F)(F)F)c12	> 100	> 100	> 100
Cn1cc(C2=C(c3cccc(Br)c3)C(=O)NC2=O)c2ccccc21	> 100	> 100	> 100
Cn1c(=O)c(Sc2ccccc2F)cc2cnc(NC3CCOCC3)nc21	> 100	> 100	> 100
COc1ccc(C2=C(c3cn(C)c4ccccc34)C(=O)NC2=O)cc1OC	> 100	> 100	> 100
Cn1cc(C2=C(c3cn(C)c4cc(C(N)=O)ccc34)C(=O)NC2=O)c2ccccc21	> 100	> 100	> 100
Cn1c(=O)c(-c2ccccc2Cl)cc2cnc(NC3CCOCC3)nc21	> 100	> 100	> 100
CON=C1NC(=O)/C(=C/c2ccc3ncccc3c2)S1	> 100	6.8	> 100
Cn1cc(C2=C(c3ccsc3)C(=O)NC2=O)c2ccccc21	> 100	> 100	> 100
Cc1[nH]nc2c1N=C(c1ccccc1F)c1cc(C(N)=O)ccc1N2	4.23	> 100	2.66
Cc1[nH]nc2c1N=C(c1ccccc1Cl)c1cc([N+](=O)[O-])ccc1N2	> 100	> 100	> 100
COc1cc[nH]c1/C=C1\C(=O)Nc2ccc(F)c(I)c21	> 100	> 100	> 100
CNCC1CCn2c(c(C3=C(c4cn(C)c5ccccc45)C(=O)NC3=O)c3ccccc32)C1 (stereo not given)	> 100	0.89	> 100
Nc1c(C(=O)c2cccc(C(O)CO)c2)cnn1-c1ccc(F)cc1 (stereo not given)	> 100	> 100	> 100
O=C1NC(=NCC(CO)c2ccccc2)S/C1=C\c1ccc2ncccc2c1 (stereo not given)	> 100	> 100	> 100
C/C(=C1/SC(=NCc2cccs2)NC1=O)c1ccc2ncccc2c1	> 100	> 100	> 100
Nc1c(C(=O)c2cccc(C(O)(CO)CO)c2)cnn1-c1ccc(F)cc1	> 100	> 100	> 100
Fc1ccc(-c2c(-c3ccncc3)[nH]c3cccnc23)cc1	> 100	> 100	> 100
Cn1c(=O)c(Oc2ccc(F)cc2F)cc2cnc(NC3CCC(O)CC3)nc21 (stereo not given)	> 100	> 100	> 100

Compound	IC50 cell viability (PCB490-5) [µM]	IC50 cell viability (PCB490-3) [µM]	IC50 cell viability (PCB490-4) [µM]
O=c1[nH]c2nc(NC3CCOCC3)ncc2cc1Oc1ccc(F)cc1F	> 100	> 100	> 100
CC(=O)N[C@@H](Cc1ccc(OP(=O)(O)O)cc1)C(=O)N[C@H]1CCC(=O)N2CCC[C@@H](C(=O)NCc3ccc(Cl)cc3)N2C1=O	> 100	> 100	> 100
CCn1c(=O)c(Oc2ccc(F)cc2F)cc2cnc(NC3CCOCC3)nc21	> 100	> 100	> 100
Cn1cc(C2=C(c3cccc(Cl)c3)C(=O)NC2=O)c2ccccc21	> 100	> 100	> 100
COc1cccc(C2=C(c3cn(C)c4cc(F)ccc34)C(=O)NC2=O)c1	> 100	> 100	> 100
CC(=O)Nc1ccc2c(C3=C(c4cn(C)c5ccccc45)C(=O)NC3=O)cn(C)c2c1	> 100	> 100	1.94
O=C1NC(=NCCc2ccccc2F)S/C1=C\c1ccc2ncccc2c1	> 100	> 100	> 100
Cn1cc(C2=C(Sc3ccccc3)C(=O)NC2=O)c2ccccc21	> 100	> 100	> 100
CN[C@H](C#Cc1c(F)ccc2c1/C(=C/c1[nH]ccc1OC)C(=O)N2)CO	1.77	> 100	> 100
Cn1cc(C2=C(c3c4n(c5ccccc35)CCC(CN)CC4)C(=O)NC2=O)c2ccccc21 (stereo not given)	> 100	> 100	> 100
O=C1NC(=NCCc2cccc(F)c2)S/C1=C\c1ccc2ncccc2c1	> 100	> 100	> 100
O=C1NC(=NCCc2ccccc2Cl)S/C1=C\c1ccc2ncccc2c1	> 100	> 100	> 100
O=C1NC(=N[C@@H](CO)c2ccccc2)S/C1=C\c1ccc2ncccc2c1	> 100	> 100	> 100
Cn1cc(C2=C(c3cn(C)c4c([N+](=O)[O-])cccc34)C(=O)NC2=O)c2ccccc21	> 100	> 100	> 100
COc1cccc(C2=C(c3cn(C)c4ccc(Cl)cc34)C(=O)NC2=O)c1	> 100	> 100	> 100
Cc1ccc(C)c(C2=C(c3cn(C)c4ccccc34)C(=O)NC2=O)c1	> 100	> 100	> 100
Cn1cc(C2=C(c3cn(C)c4cc(C(=O)O)ccc34)C(=O)NC2=O)c2ccccc21	> 100	> 100	> 100
Cn1c(-c2ccncc2)c(-c2ccc(F)cc2)c2ncccc21	> 100	> 100	> 100
Cn1cc(C2=C(c3cn(CCO)c4ccccc34)C(=O)NC2=O)c2ccccc21	> 100	> 100	> 100
CC(C)c1[nH]nc2c1N=C(c1ccccc1Cl)c1cc([N+](=O)[O-])ccc1N2	> 100	> 100	> 100
